Results: US9346829B2, “5-HT3 receptor antagonists” (Takeda Phamaceutical Company Limited, priority 2012, dated 2016)
Counter-ions that a name gives are not always drawn.

Target: 5-HT3a receptor (Homo sapiens (Human), UniProt P46098)
Assay: Inhibition of Ca flux activity of 5-HT3 in vitro assay
Assay type: cell-based
Conditions: not given
Experimental: The 5-HT3 antagonist activity of the compounds of the invention was determined by measuring the ability of the compounds to inhibit the calcium flux activity of […] receptor expressed in HEK-293T cells. HEK-293T cells were transfected with the 5-HT3a expression construct using Xtreme Gene 9 (Roche) in 150 mm tissue culture treated plates and incubated for 24 hours at 37° C. Cells were then split and plated at a density of 60K cells/well in poly-lysine coated, black 96-well plates with clear bottoms (BD BioSciences) and incubated overnight at 37° C. Growth media was removed and cells loaded with 200 uL calcium indicator dye in HBSS containing 20 mM HEPES (Calcium 5 Assay kit, Molecular Devices) and incubated at 37° C. for 1 hour. While cells were incubating, the 10× antagonist and agonist/antagonist addition plates were made. For 10× antagonist plate: half log serial dilutions (final concentrations range from 10^−7 through 10^−10 with the bottom well a negative, no ligand control) were made from test compounds in DMSO at a 1000× concentration and then diluted to 10× in HBSS/20 mM HEPES. For addition plate: 5HT was diluted to 100× in HBSS/20 mM HEPES (final concentration in the assay—216 nM) and 15 uL was added to each well of the addition plate, 15 uL of 10× compound was also added to the addition plate, and finally 120 uL of HBSS/20 mM HEPES (for a total of 150 uL). Cells were then removed from the incubator and equilibrated to room temperature for 10 minutes, then 22.5 uL of 10× test compounds were added in triplicate to the plates and incubated at room temperature for 10 minutes (Tropisetron was used as a positive control in every assay). Test plate and addition plate were loaded into the FlexStation III (Molecular Devices), and using the fluidics, 22.5 uL compound additions were made (at t=˜17 seconds), and fluorescence was measured for 90 seconds, reading every 2.2 seconds. Data sets were analyzed as max minus min using Software Max Pro (Molecular Devices). IC50 curves were generated using non-linear regression in GraphPad Prism.

5-HT3a receptor, sequence (P46098 24-478): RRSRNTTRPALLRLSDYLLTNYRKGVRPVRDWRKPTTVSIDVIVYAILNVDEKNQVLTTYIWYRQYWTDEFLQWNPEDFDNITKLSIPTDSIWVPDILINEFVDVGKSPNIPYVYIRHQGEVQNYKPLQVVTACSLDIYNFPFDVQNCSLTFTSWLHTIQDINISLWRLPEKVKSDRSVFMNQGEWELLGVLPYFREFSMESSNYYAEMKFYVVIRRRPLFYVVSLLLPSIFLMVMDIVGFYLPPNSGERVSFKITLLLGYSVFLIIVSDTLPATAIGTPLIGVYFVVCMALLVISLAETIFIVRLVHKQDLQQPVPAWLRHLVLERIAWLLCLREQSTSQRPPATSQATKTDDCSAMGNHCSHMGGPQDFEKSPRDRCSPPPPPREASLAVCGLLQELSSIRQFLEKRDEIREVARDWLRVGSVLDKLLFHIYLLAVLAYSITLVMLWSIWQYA

Structure (SMILES)	IC50 [nM]
CN1C2COCC1CC(OC(=O)c1c[nH]c3ccccc13)C2 [Reference 7, (1R,5S,7S)-9-methyl-3-oxa-9-azabicyclo[3.3.1]nonan-7-yl 1H-indole-3-carboxylate, reference compound]	89.1

Same assay, conditions: approximate IC50; calcium flux, 5-HT3a expressed in HEK-293T cells, 5HT 216 nM; read-out: IC50

Structure (SMILES)	IC50 [nM]
CN1[C@@H]2COC[C@H]1C[C@@H](NC(=O)c1cn(-c3ccccn3)c3ccccc13)C2 [Compound 8, N-((1R,5S,7S)-9-methyl-d3-3-oxa-9-azabicyclo[3.3.1]nonan-7-yl)-1-(pyridin-2-yl)-1H-indole-3-carboxamide, 2,2,2-trifluoroacetate]	0.81
CN1[C@@H]2COC[C@H]1C[C@@H](NC(=O)c1cn(-c3cccnc3)c3ncc(F)cc13)C2 [Compound 13, 5-fluoro-N-((1R,5S,7S)-9-methyl-3-oxa-9-azabicyclo [3.3.1]nonan-7-yl)-1-(pyridin-3-yl)-1H-pyrrolo[2,3-b]pyridine-3-carboxamide, 2,2,2-trifluoroacetic acid salt]	0.72
CN1[C@@H]2COC[C@H]1C[C@@H](OC(=O)c1cn(-c3ccccn3)c3ccccc13)C2 [Compound 7, (1R,5S,7S)-9-methyl-d3-3-oxa-9-azabicyclo[3.3.1]nonan-7-yl 1-(pyridin-2-yl)-1H-indole-3-carboxylate, 2,2,2-trifluoroacetate]	2.86
CN1[C@@H]2COC[C@H]1C[C@@H](NC(=O)c1nn(-c3ccccn3)c3ccccc13)C2 [Compound 14, N-((1R,5S,7S)-9-methyl-3-oxa-9-azabicyclo[3.3.1]nonan-7-yl)-1-(pyridin-2-yl)-1H-indazole-3-carboxamide, 2,2,2-trifluoroacetic acid salt]	1.34
Cn1cc(-n2cc(C(=O)O[C@H]3C[C@H]4COC[C@@H](C3)N4)c3ccccc32)cn1 [Compound 9, (1R,5S,7S)-3-oxa-9-azabicyclo [3.3.1]nonan-7-yl 1-(1-methyl-1H-pyrazol-4-yl)-1H-indol-3-carboxylate, 2,2,2-trifluoroacetic acid salt]	0.68
CCN1[C@@H]2COC[C@H]1C[C@@H](NC(=O)c1cn(-c3cnn(C)c3)c3ccccc13)C2 [Compound 31, N-((1R,5S,7S)-9-ethyl-3-oxa-9-azabicyclo[3.3.1]nonan-7-yl)-1-(1-methyl-1H-pyrazol-4-yl)-1H-indole-3-carboxamide]	> 1000
CN1[C@@H]2COC[C@H]1CC(NC(=O)c1cn(-c3cccnc3)c3ccccc13)C2 (stereo partly drawn) [Compound 6, N-((1R,5S,7S)-9-methyl-d3-3-oxa-9-azabicyclo[3.3.1]nonan-7-yl)-1-(pyridin-3-yl)-1H-indole-3-carboxamide, 2,2,2-trifluoroacetate]	1.1
O=C(O[C@H]1C[C@H]2COC[C@@H](C1)N2)c1cn(-c2cccnc2)c2ccccc12 [Compound 5, (1R,5S,7S)-3-oxa-9-azabicyclo [3.3.1]nonan-7-yl 1-(pyridin-3-yl)-1H-indole-3-carboxylate, 2,2,2-trifluoroacetate]	0.62
Cn1cc(-n2cc(C(=O)N[C@H]3C[C@H]4COC[C@@H](C3)N4)c3ccccc32)cn1 [Compound 28, N-((1R,5S,7S)-3-oxa-9-azabicyclo[3.3.1]nonan-7-yl)-1-(1-methyl-1H-pyrazol-4-yl)-1H-indole-3-carboxamide]	2.04
CN1[C@@H]2COC[C@H]1C[C@@H](NC(=O)c1cn(-c3ccccn3)c3ncc(F)cc13)C2 [Compound 12, 5-fluoro-N-((1R,5S,7S)-9-methyl-3-oxa-9-azabicyclo [3.3.1]nonan-7-yl)-1-(pyridin-2-yl)-1H-pyrrolo[2,3-b]pyridine-3-carboxamide, 2,2,2-trifluoroacetic acid salt]	0.882
CN1[C@@H]2COC[C@H]1C[C@@H](NC(=O)c1cn(-c3cccnc3)c3ccccc13)C2 [Compound 2, N-((1R,5S,7S)-9-methyl-3-oxa-9-azabicyclo[3.3.1]nonan-7-yl)-1-(pyridin-3-yl)-1H-indole-3-carboxamide, 2,2,2-trifluoroacetate]	0.51
CN1[C@@H]2COC[C@H]1C[C@@H](NC(=O)c1cn(-c3cnn(C(F)F)c3)c3ccccc13)C2 [Compound 25, 1-(1-(difluoromethyl)-1H-pyrazol-4-yl)-N-((1R,5S,7S)-9-methyl-3-oxa-9-azabicyclo [3.3.1]nonan-7-yl)-1H-indole-3-carboxamide]	1.39
Cn1ccc(-n2cc(C(=O)O[C@H]3C[C@H]4COC[C@@H](C3)N4)c3ccccc32)n1 [Compound 16, (1R,5S,7S)-3-oxa-9-azabicyclo[3.3.1]nonan-7-yl 1-(1-methyl-1H-pyrazol-3-yl)-1H-indole-3-carboxylate, 2,2,2-trifluoroacetic acid salt]	2.5
CN1[C@@H]2COC[C@H]1C[C@@H](NC(=O)c1cn(-c3cccnc3)c3ncccc13)C2 [Compound 11, N-((1R,5S,7S)-9-methyl-3-oxa-9-azabicyclo[3.3.l]nonan-7-yl)-1-(pyridin-3-yl)-1H-pyrrolo[2,3-b]pyridine-3-carboxamide, 2,2,2-trifluoroacetic acid salt]	0.6
CN1[C@@H]2COC[C@H]1C[C@@H](NC(=O)c1cn(-c3ccnn3C)c3ccccc13)C2 [Compound 23, 1-(1-methyl-1H-pyrazol-5-yl)-N-((1R,5S,7S)-9-methyl-3-oxa-9-azabicyclo[3.3.1]nonan-7-yl)-1H-indole-3-carboxamide, 2,2,2-trifluoroacetic acid salt]	1.01
O=C(N[C@H]1C[C@H]2COC[C@@H](C1)N2)c1cn(-c2cn[nH]c2)c2ccccc12 [Compound 30, N-((1R,5S,7S)-3-oxa-9-azabicyclo[3.3.1]nonan-7-yl)-1-(1H-pyrazol-4-yl)-1H-indole-3-carboxamide]	0.745
CN1[C@@H]2COC[C@H]1C[C@@H](NC(=O)c1cn(-c3ccccn3)c3ncccc13)C2 [Compound 10, N-(1R,5S,7S)-9-methyl-3-oxa-9-azabicyclo[3.3.1]nonan-7-yl)-1-(pyridin-2-yl)-1H-pyrrolo[2,3-b]pyridine-3-carboxamide, 2,2,2-trifluoroacetic acid salt]	0.65
CN1[C@@H]2COC[C@H]1C[C@@H](NC(=O)c1cn(-c3ccn(C)n3)c3ccccc13)C2 [Compound 17, 1-(1-methyl-1H-pyrazol-3-yl)-N-((1R,5S,7S)-9-methyl-3-oxa-9-azabicyclo [3.3.1]nonan-7-yl)-1H-indole-3-carboxamide, 2,2,2-trifluoroacetic acid salt]	0.75
CN1[C@@H]2COC[C@H]1C[C@@H](NC(=O)c1cn(-c3ccccn3)c3ccccc13)C2 [Compound 3, N-((1R,5S,7S)-9-methyl-3-oxa-9-azabicyclo[3.3.1]nonan-7-yl)-1-(pyridin-2-yl)-1H-indole-3-carboxamide, 2,2,2-trifluoroacetate]	0.96
N#Cc1cc(-n2cc(C(=O)O[C@H]3C[C@H]4COC[C@@H](C3)N4)c3ccccc32)ccn1 [Compound 19, (1R,5S,7S)-3-oxa-9-azabicyclo[3.3.1]nonan-7-yl 1-(2-cyanopyridin-4-yl)-1H-indole-3-carboxylate, 2,2,2-trifluoroacetic acid salt]	3.68
CN1[C@@H]2COC[C@H]1C[C@@H](OC(=O)c1cn(-c3cnn(CCF)c3)c3ccccc13)C2 [Compound 18, (1R,5S,7S)-9-methyl-3-oxa-9-azabicyclo[3.3.1]nonan-7-yl 1-(1-(2-fluoroethyl)-1H-pyrazol-4-yl)-1H-indole-3-carboxylate, 2,2,2-trifluoroacetic acid salt]	2.01
Cc1ncccc1-n1cc(C(=O)N[C@H]2C[C@H]3COC[C@@H](C2)N3C)c2ccccc21 [Compound 20, N-((1R,5S,7S)-9-methyl-3-oxa-9-azabicyclo[3.3.1]nonan-7-yl)-1-(2-methylpyridin-3-yl)-1H-indole-3-carboxamide, 2,2,2-trifluoroacetic acid salt]	1.5
Cc1ccncc1-n1cc(C(=O)N[C@H]2C[C@H]3COC[C@@H](C2)N3C)c2ccccc21 [Compound 21, N-((1R,5S,7S)-9-methyl-3-oxa-9-azabicyclo[3.3.1]nonan-7-yl)-1-(4-methylpyridin-3-yl)-1H-indole-3-carboxamide, 2,2,2-trifluoroacetic acid salt]	1.1
CN1[C@@H]2COC[C@H]1CC(NC(=O)c1cn(-c3ccncc3)c3ccccc13)C2 (stereo partly drawn) [Compound 4, N-((1R,5S,7S)-9-methyl-3-oxa-9-azabicyclo[3.3.1]nonan-7-yl)-1-(pyridin-4-yl)-1H-indole-3-carboxamide, 2,2,2-trifluoroacetate]	0.69

Target: nicotinic α-7 receptor (Homo sapiens (Human), UniProt P36544)
Assay: Nicotinic α-7 receptor binding assay
Conditions: binding at the nicotinic α-7 receptor, carried out at Eurofins Pharma Services
Experimental: The evaluation of binding at the nicotinic α-7 receptor was carried out at Eurofins Pharma Services.

nicotinic α-7 receptor, sequence (P36544 23-502): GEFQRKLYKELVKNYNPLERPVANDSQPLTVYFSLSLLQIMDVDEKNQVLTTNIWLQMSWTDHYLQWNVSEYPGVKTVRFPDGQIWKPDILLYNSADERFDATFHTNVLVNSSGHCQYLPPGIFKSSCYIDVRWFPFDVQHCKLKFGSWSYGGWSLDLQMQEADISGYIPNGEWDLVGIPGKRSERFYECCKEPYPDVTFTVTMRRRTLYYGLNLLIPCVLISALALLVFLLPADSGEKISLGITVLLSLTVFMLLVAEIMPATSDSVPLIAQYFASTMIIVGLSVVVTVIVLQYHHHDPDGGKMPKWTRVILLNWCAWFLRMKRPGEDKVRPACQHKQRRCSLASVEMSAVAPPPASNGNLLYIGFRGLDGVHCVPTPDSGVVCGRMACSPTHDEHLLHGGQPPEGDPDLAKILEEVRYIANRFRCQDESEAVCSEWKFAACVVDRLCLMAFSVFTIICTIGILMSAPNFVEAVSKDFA

Structure (SMILES)	IC50 [nM]
CN1C2COCC1CC(OC(=O)c1c[nH]c3ccccc13)C2 [Reference 7, (1R,5S,7S)-9-methyl-3-oxa-9-azabicyclo[3.3.1]nonan-7-yl 1H-indole-3-carboxylate, reference compound]	1660
